According to patent US20170204197A1, “Goodpasture Antigen Binding Protein Detection and Inhibition and its Use in Diabetes” (FibroStatin, S.L., priority 2013, published 2017):

Experiments:
A549 cells = test: Glucose uptake by A549 cells under increased extracellular glucose (FIG. 2B); type: cell-based; conditions: DMEM:F-12 (315 mg glucose/dL), increasing concentrations of T12, 14 h
Method: (§1) FIG. 2. […] A, A549 cells were cultured in DMEM plus 10% fetal bovine serum and penicillin/streptomycin with the indicated concentrations of glucose during 24 h. Then cells were lysed in 25 mM Tris-HCl pH 7.5, 150 mM NaCl, 1% Triton X-100, 0.1% SDS, 1 mM PMSF, 10 μg/mL leupeptin, 20 mM NaF at 4° C. during 30 min. Lysates were cleared by centrifugation at 16,000×g for 5 min (4° C.) and the protein concentration of supernatants was determined (Bio-Rad). […] Development was performed with Amersham ECL Prime Western Blotting Detection Reagent (GE Healthcare Lifesciences) and image acquisition with an ImageQuant LAS 4000 Mini device (GE Healthcare Lifesciences). […] After incubations cells were lysed as in A and protein concentrations in supernatants were similarly assessed. Glucose concentrations in the media were determined at the beginning and at the end of the incubation period with a Glucocard G+ meter (Arkray Factory, Inc.), and glucose uptake by cells was calculated using the protein concentrations of the corresponding lysates for normalization purposes.
(§2) A, A549 cells were cultured in DMEM plus 10% fetal bovine serum and penicillin/streptomycin with the indicated concentrations of glucose during 24 h. […] Lysates were cleared by centrifugation at 16,000×g for 5 min (4° C.) and the protein concentration of supernatants was determined (Bio-Rad). […]

[1] = tested on: AS160 protein phosphorylated at Ser 318 (P Ser 318 AS160); test: Western blot for AS160 phosphorylated at Ser 318 in A549 lysates (FIG. 2C); type: cell-based; conditions: A549 cells, DMEM:F-12 (315 mg glucose/dL), T12 50 μM, 20 h
Method: as §1, §2

[2] = tested on: C2Cl2 mouse myoblasts differentiated to myotubes; test: Glucose concentration in media of C2Cl2 myotubes at physiological glucose (FIG. 3); type: cell-based; conditions: initial glucose 115 mg/dL, T12 50 μM, indicated times
Method: C2Cl2 mouse myoblasts were differentiated to myotubes in DMEM supplemented with 2% horse serum and penicillin/streptomycin during 10 days, and then incubated in DMEM plus 0.25% horse serum with an initial glucose concentration of 115 mg/dL, in absence or presence of T12 (50 μM) during the indicated times. Glucose concentrations in media were determined with a Glucocard™ G+ meter (Arkray Factory, Inc.). Shown are means±SEM (n=2). […] C2Cl2 mouse myoblasts were differentiated to myotubes in DMEM supplemented with 2% horse serum and penicillin/streptomycin during 10 days, and then incubated in DMEM plus 0.25% horse serum with an initial glucose concentration of 115 mg/dL, in absence or presence of T12 (50 μM) during the indicated times. Glucose concentrations in media were determined with a Glucocard™ G+ meter (Arkray Factory, Inc.). Shown are means±SEM (n=2).

GPBP = target: T1, GPBP (Homo sapiens, UniProt Q9Y5P4); conditions: from WO 2004/070025, WO 2011/054530, U.S. Pat. No. 8,586,776, WO2014/006020; cited from earlier work
T1 sequence (Q9Y5P4 1-624): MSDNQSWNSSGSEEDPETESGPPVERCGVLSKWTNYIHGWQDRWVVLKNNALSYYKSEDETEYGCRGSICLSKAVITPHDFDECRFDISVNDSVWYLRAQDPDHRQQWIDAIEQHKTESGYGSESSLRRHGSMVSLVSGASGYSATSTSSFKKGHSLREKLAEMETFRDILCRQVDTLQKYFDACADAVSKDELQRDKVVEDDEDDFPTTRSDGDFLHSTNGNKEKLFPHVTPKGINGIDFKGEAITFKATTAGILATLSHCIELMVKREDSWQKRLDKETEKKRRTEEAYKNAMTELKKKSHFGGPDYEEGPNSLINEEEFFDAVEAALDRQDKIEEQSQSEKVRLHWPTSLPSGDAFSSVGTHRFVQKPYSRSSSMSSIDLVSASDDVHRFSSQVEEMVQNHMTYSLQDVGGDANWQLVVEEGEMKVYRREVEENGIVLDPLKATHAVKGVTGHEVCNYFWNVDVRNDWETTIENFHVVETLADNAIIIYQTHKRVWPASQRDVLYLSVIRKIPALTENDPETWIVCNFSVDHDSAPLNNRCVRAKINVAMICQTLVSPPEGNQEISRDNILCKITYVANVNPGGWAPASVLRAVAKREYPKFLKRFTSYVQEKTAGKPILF

Row | Compound | glucose uptake (A549 cells) | phosphorylation of AS160 (Ser 318) [1] | extracellular glucose levels [2] | inhibition of GPBP kinase activity (GPBP)
1 | COc1ccc(-c2ccc(-c3cccc(C)c3)c(C)c2)c(CCC(=O)O)c1 [T12, 3-[4″-methoxy-3,2′-dimethyl-(1,1′;4′,1″)terphenyl-2″-yl]propionic acid] | progressively enhanced glucose uptake | induced phosphorylation of AS160 | reduced the extracellular glucose levels in a concentration-dependent manner | –
2 | Q2: isolated peptide representing 260SHCIE264 and flanking regions (LATLSHCIELMVKR) (SEQ ID NO: 8) | – | – | – | efficiently inhibited GPBP kinase activity
3 | COc1cccc2c1C(=O)c1c(O)c3c(c(O)c1C2=O)C[C@@](O)(C(=O)CO)C[C@@H]3O[C@H]1C[C@H](N)[C@H](O)[C@H](C)O1 [doxorubicin] | – | – | – | inhibit GPBP kinase activity
